# Experimental data published in PubChem BioAssay AID1963834 (Molecular Pharmacology Branch, DTP, NCI, 2024).
# Tested on: 873145-292-R-J1-PDC complex spheroid viability
# Test: Anticancer human tumor 873145-292-R-J1-PDC patient-derived renal clear cell carcinoma cell line growth inhibition [POLQ]
# Details: for IC50: curve of first compound; for viability, T/C: stronger effect = lower value
# Procedure, shortened: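 Complex spheroid viability model combining PDC tumour cells with endothelial (HUVEC) and MSC stromal cells. Novobiocin, ART-558 or RP6685 were tested singly and in combination with standard and investigational anticancer drugs. Each was titrated in half-log steps from near clinical Cmax, or from 10 microM where Cmax was unknown.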
# [1] = second compound 0.0316 µM, first compound 0.0316 µM
# [2] = second compound 0.0316 µM, first compound 0.1 µM
# [3] = second compound 0.0316 µM, first compound 0.316 µM
# [4] = second compound 0.0316 µM, first compound 1 µM
# [5] = second compound 0.0316 µM, first compound 3.16 µM
# [6] = second compound 0.0316 µM, first compound 10 µM
# [7] = second compound 0.1 µM, first compound 0.0316 µM
# [8] = second compound 0.1 µM, first compound 0.1 µM
# [9] = second compound 0.1 µM, first compound 0.316 µM
# [10] = second compound 0.1 µM, first compound 1 µM
# [11] = second compound 0.1 µM, first compound 3.16 µM
# [12] = second compound 0.1 µM, first compound 10 µM
# [13] = second compound 0.316 µM, first compound 0.0316 µM
# [14] = second compound 0.316 µM, first compound 0.1 µM
# [15] = second compound 0.316 µM, first compound 0.316 µM
# [16] = second compound 0.316 µM, first compound 1 µM
# [17] = second compound 0.316 µM, first compound 3.16 µM
# [18] = second compound 0.316 µM, first compound 10 µM
# [19] = second compound 1 µM, first compound 0.0316 µM
# [20] = second compound 1 µM, first compound 0.1 µM
# [21] = second compound 1 µM, first compound 0.316 µM
# [22] = second compound 1 µM, first compound 1 µM
# [23] = second compound 1 µM, first compound 3.16 µM
# [24] = second compound 1 µM, first compound 10 µM
# [25] = second compound 3.16 µM, first compound 0.0316 µM
# [26] = second compound 3.16 µM, first compound 0.1 µM
# [27] = second compound 3.16 µM, first compound 0.316 µM
# [28] = second compound 3.16 µM, first compound 1 µM
# [29] = second compound 3.16 µM, first compound 3.16 µM
# [30] = second compound 3.16 µM, first compound 10 µM
# [31] = second compound 10 µM, first compound 0.0316 µM
# [32] = second compound 10 µM, first compound 0.1 µM
# [33] = second compound 10 µM, first compound 0.316 µM
# [34] = second compound 10 µM, first compound 1 µM
# [35] = second compound 10 µM, first compound 3.16 µM
# [36] = second compound 10 µM, first compound 10 µM
# 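Further: spheroids exposed to compounds for 7 days before viability readout.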
# 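Wherever viability, T/C is given: luminescence signal used as surrogate for viable cell content; 100% = DMSO vehicle control viability.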
structure (smiles),measurement,setting,value
COc1cc(C2c3cc4c(cc3C(OC3OC5COC(C)OC5C(O)C3O)C3COC(=O)C23)OCO4)cc(OC)c1O (stereo unspecified) + Cc1cccc(N(C)C(=O)C2C(O)CCN2c2nc(C)cc(C(F)(F)F)c2C#N)c1,IC50,second compound 0.0316 µM,9.59 µM
same,IC50,second compound 0.1 µM,> 10 µM
same,IC50,second compound 0.316 µM,8.71 µM
same,IC50,second compound 1 µM,8.98 µM
same,IC50,second compound 3.16 µM,9.5 µM
same,IC50,second compound 10 µM,> 10 µM
same,"viability, T/C",[1],97.9%
same,"viability, T/C",[2],98.3%
same,"viability, T/C",[3],86.8%
same,"viability, T/C",[4],81.4%
same,"viability, T/C",[5],68.2%
same,"viability, T/C",[6],48.9%
same,"viability, T/C",[7],91.2%
same,"viability, T/C",[8],94.5%
same,"viability, T/C",[9],87.4%
same,"viability, T/C",[10],90.1%
same,"viability, T/C",[11],68.9%
same,"viability, T/C",[12],53.5%
same,"viability, T/C",[13],99.6%
same,"viability, T/C",[14],97.1%
same,"viability, T/C",[15],78.5%
same,"viability, T/C",[16],86.8%
same,"viability, T/C",[17],68.3%
same,"viability, T/C",[18],46.2%
same,"viability, T/C",[19],94.6%
same,"viability, T/C",[20],96.7%
same,"viability, T/C",[21],95%
same,"viability, T/C",[22],87%
same,"viability, T/C",[23],68.8%
same,"viability, T/C",[24],48%
same,"viability, T/C",[25],98.9%
same,"viability, T/C",[26],82.5%
same,"viability, T/C",[27],91.1%
same,"viability, T/C",[28],85.8%
same,"viability, T/C",[29],74%
same,"viability, T/C",[30],48.4%
same,"viability, T/C",[31],96.7%
same,"viability, T/C",[32],85.3%
same,"viability, T/C",[33],81.6%
same,"viability, T/C",[34],72.3%
same,"viability, T/C",[35],60%
same,"viability, T/C",[36],57.1%
COc1cccc2c1C(=O)c1c(O)c3c(c(O)c1C2=O)CC(O)(C(=O)CO)CC3OC1CC(N)C(O)C(C)O1 (stereo unspecified) + Cc1cccc(N(C)C(=O)C2C(O)CCN2c2nc(C)cc(C(F)(F)F)c2C#N)c1,IC50,second compound 0.0316 µM,1.44 µM
same,IC50,second compound 0.1 µM,1.4 µM
same,IC50,second compound 0.316 µM,1.35 µM
same,IC50,second compound 1 µM,1.35 µM
same,IC50,second compound 3.16 µM,1.14 µM
same,IC50,second compound 10 µM,0.636 µM
same,"viability, T/C",[1],87.6%
same,"viability, T/C",[2],83.7%
same,"viability, T/C",[3],66.1%
same,"viability, T/C",[4],71.8%
same,"viability, T/C",[5],2.96%
same,"viability, T/C",[6],2.02%
same,"viability, T/C",[7],92.2%
same,"viability, T/C",[8],82.5%
same,"viability, T/C",[9],66.9%
same,"viability, T/C",[10],68.6%
same,"viability, T/C",[11],4.68%
same,"viability, T/C",[12],2.44%
same,"viability, T/C",[13],96.4%
same,"viability, T/C",[14],75.1%
same,"viability, T/C",[15],72.1%
same,"viability, T/C",[16],66.1%
same,"viability, T/C",[17],4.5%
same,"viability, T/C",[18],2.19%
same,"viability, T/C",[19],95.8%
same,"viability, T/C",[20],69.7%
same,"viability, T/C",[21],71.9%
same,"viability, T/C",[22],66.4%
same,"viability, T/C",[23],3.11%
same,"viability, T/C",[24],1.52%
same,"viability, T/C",[25],91.1%
same,"viability, T/C",[26],83.5%
same,"viability, T/C",[27],71.9%
same,"viability, T/C",[28],57.1%
same,"viability, T/C",[29],2.19%
same,"viability, T/C",[30],1.66%
same,"viability, T/C",[31],84.8%
same,"viability, T/C",[32],73.3%
same,"viability, T/C",[33],80.3%
same,"viability, T/C",[34],30.8%
same,"viability, T/C",[35],0.94%
same,"viability, T/C",[36],1.6%
O=c1[nH]cc(F)c(=O)[nH]1 + Cc1cccc(N(C)C(=O)C2C(O)CCN2c2nc(C)cc(C(F)(F)F)c2C#N)c1,IC50,second compound 0.0316 µM,> 10 µM
same,IC50,second compound 0.1 µM,> 10 µM
same,IC50,second compound 0.316 µM,> 10 µM
same,IC50,second compound 1 µM,> 10 µM
same,IC50,second compound 3.16 µM,> 10 µM
same,IC50,second compound 10 µM,> 10 µM
same,"viability, T/C",[1],106%
same,"viability, T/C",[2],104%
same,"viability, T/C",[3],99.8%
same,"viability, T/C",[4],102%
same,"viability, T/C",[5],115%
same,"viability, T/C",[6],93.3%
same,"viability, T/C",[7],118%
same,"viability, T/C",[8],101%
same,"viability, T/C",[9],103%
same,"viability, T/C",[10],109%
same,"viability, T/C",[11],97.2%
same,"viability, T/C",[12],100%
same,"viability, T/C",[13],98.3%
same,"viability, T/C",[14],106%
same,"viability, T/C",[15],91.4%
same,"viability, T/C",[16],92.4%
same,"viability, T/C",[17],117%
same,"viability, T/C",[18],102%
same,"viability, T/C",[19],102%
same,"viability, T/C",[20],113%
same,"viability, T/C",[21],100%
same,"viability, T/C",[22],95%
same,"viability, T/C",[23],109%
same,"viability, T/C",[24],96.8%
same,"viability, T/C",[25],93.5%
same,"viability, T/C",[26],101%
same,"viability, T/C",[27],87.7%
same,"viability, T/C",[28],92.6%
same,"viability, T/C",[29],101%
same,"viability, T/C",[30],104%
same,"viability, T/C",[31],98.6%
same,"viability, T/C",[32],92.9%
same,"viability, T/C",[33],94.7%
same,"viability, T/C",[34],98.4%
same,"viability, T/C",[35],104%
same,"viability, T/C",[36],92%
